Data as given in patent US20220023249A1, “Carotenoid Formulation For Increased Bioavailability” (Industrial Organica, SA de CV, priority 2020, published 2022).
Read-outs that look alike come from different tables or passages of the source.

Columns and labels:
[1] = cited from earlier work
[2] = set-up: species or system human; conditions: in vivo
From the text: COAST was a 6-month, double-blind, block-randomized placebo-controlled study involving 81 healthy participants between 18 and 65 years old. Participant recruitment and assessment commenced on December 2017 and ended on December 2018. Recruitment was achieved through local media and advertisement at the Waterford Institute of Technology, local fitness centers, and with employees of an industry based in Waterford, Ireland. […] Every participant enrolled in the study provided written informed consent prior to commencement. The study protocol was approved May 2017 by the Research Ethics Committees of the Waterford Institute of Technology (Waterford, Ireland) and the HSE, South Eastern Area (University Hospital Waterford, Waterford, Ireland). Industrial Orgánica, S.A. de C.V., the manufacturer of the nutritional supplements, had no role in the design of the study, the collection and analysis of the data, or the preparation of manuscripts. All vouch for the accuracy of the data and the fidelity of the study to the protocol. COAST was a five-arm intervention study, where participants were randomly allocated, with equal probability and separately for men and women, to one of four active intervention groups or to a placebo group. Label claims of the nutritional content in the intervention supplements were as follows: Group 1, L (10 mg)+MZ (10 mg)+Z (2 mg) provided in one capsule; Group 2, L (10 mg)+MZ (10 mg)+Z (2 mg) provided in two capsules; […] Therefore, it was decided to present the dosages of the formulations as stated by label claim. […] Serum carotenoid concentrations were analyzed as the total concentrations (μmol/L) for each of the carotenoids in serum. […] Outcome variables were recorded at baseline and at 6 months. […] Calibration lines used, as well as lower and upper limits of quantification (LLOQ and ULOQ respectively), are as previously performed. Serum carotenoid analysis was completed in sixteen independent batches, with a maximum intra-day precision of 7.28%, measured as RSD, and an inter-day precision of 3.16% (RSD). […]

[3] = hens; cited from earlier work

Row | serum response compared to free carotenoid as crystals [2] | SMILES | increase of serum L ([1]; AREDS 2 study) | increase of serum L ([1]; CREST AMD study) | serum response compared to group supplemented with free L ([1]; previous clinical trial) | MPOD improvements compared to free L supplementation ([1]; previous report) | deposition of carotenoid in egg yolk compared to free form [3]
1 |  | CC1=C[C@H](O)CC(C)(C)[C@H]1/C=C/C(C)=C/C=C/C(C)=C/C=C/C=C(C)/C=C/C=C(C)/C=C/C1=C(C)C[C@@H](O)CC1(C)C [L, (3R,3′R,6R)-lutein, reference compound] | 200% | 304% |  |  | 
2 | remained similar | CC(=O)O[C@@H]1CC(C)=C(/C=C/C(C)=C/C=C/C(C)=C/C=C/C=C(C)/C=C/C=C(C)/C=C/[C@H]2C(C)=C[C@H](OC(C)=O)CC2(C)C)C(C)(C)C1 [Ld, (3R,3′R,6R)-lutein diacetate] |  |  | slightly higher and not statistically different | superior and significant response | similar
3 | significantly greater | CC(=O)OC1CC(C)=C(C=CC(C)=CC=CC(C)=CC=CC=C(C)C=CC=C(C)C=CC2=C(C)CC(OC(C)=O)CC2(C)C)C(C)(C)C1 (stereo not drawn) [MZd, meso-zeaxanthin diacetate] |  |  |  |  | greater capability
4 | significantly greater | CC(=O)O[C@@H]1CC(C)=C(/C=C/C(C)=C/C=C/C(C)=C/C=C/C=C(C)/C=C/C=C(C)/C=C/C2=C(C)C[C@@H](OC(C)=O)CC2(C)C)C(C)(C)C1 [Zd, (3R,3′R)-zeaxanthin diacetate] |  |  |  |  | greater capability
